Entries after “also recorded” stand apart in the source; their conditions may differ.
Assays:
[1] = tested on: splenocytes; experiment: NO scavenging activity in Concanavalin A-treated splenocytes (Griess assay); assay type: cell-based, C57BL/6 mouse; conditions: Mus musculus, Splenocyte, Concanavalin A 5 µg/mL, 72 hours, read-out: NO Scavenging Activity (%) (Mean±SD)
Procedure, shortened: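 Splenocytes from 8-week-old C57BL/6 mice at 5×10^6 cells/mL in RPMI 1640/10% FBS, stimulated with Concanavalin A (5 µg/mL) plus […] test composition added at plating. After 72 h culture, remaining NO in supernatant measured by Griess assay.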

[2] = target: T1, JAK 3 (Homo sapiens, UniProt P52333); experiment: JAK Human TK kinase enzymatic radiometric assay (Eurofins), JAK 3; assay type: biochemical; set-up: unit not given here; conditions: value close to 100 indicates low JAK activity of the compound
T1 construct: purchased Eurofins Scientific (assay service)
T1 sequence (P52333 1-1124): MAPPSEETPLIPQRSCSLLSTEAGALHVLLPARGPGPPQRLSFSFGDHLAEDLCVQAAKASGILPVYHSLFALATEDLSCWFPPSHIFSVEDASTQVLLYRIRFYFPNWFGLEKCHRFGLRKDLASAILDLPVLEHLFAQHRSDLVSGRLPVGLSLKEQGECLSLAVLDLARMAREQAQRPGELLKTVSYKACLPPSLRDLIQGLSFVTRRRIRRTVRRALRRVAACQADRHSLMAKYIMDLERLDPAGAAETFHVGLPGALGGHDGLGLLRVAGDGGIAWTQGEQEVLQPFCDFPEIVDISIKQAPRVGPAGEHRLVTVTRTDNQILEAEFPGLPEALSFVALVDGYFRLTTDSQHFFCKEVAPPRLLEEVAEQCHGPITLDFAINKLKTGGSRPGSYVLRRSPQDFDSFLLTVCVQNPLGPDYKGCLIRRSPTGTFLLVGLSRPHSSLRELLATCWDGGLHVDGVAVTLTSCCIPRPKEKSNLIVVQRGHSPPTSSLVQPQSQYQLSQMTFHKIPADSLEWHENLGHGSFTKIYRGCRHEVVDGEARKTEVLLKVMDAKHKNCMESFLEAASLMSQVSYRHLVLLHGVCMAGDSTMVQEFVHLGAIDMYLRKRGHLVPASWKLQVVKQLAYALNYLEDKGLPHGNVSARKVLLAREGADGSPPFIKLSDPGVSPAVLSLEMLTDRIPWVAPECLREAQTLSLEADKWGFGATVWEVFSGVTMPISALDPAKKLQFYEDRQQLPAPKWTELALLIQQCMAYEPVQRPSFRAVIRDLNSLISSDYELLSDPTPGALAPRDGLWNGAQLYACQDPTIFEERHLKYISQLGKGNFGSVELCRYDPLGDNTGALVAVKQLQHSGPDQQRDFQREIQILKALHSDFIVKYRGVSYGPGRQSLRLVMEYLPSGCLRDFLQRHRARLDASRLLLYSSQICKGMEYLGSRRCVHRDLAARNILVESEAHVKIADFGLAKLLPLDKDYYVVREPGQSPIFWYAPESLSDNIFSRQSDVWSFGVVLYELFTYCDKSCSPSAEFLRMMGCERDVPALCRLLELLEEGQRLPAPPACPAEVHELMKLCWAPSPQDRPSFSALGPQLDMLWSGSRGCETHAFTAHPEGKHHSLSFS
Text: (§1) For the compounds of the Examples, JAK activity of each of the compounds was verified using the JAK Human TK Kinase Enzymatic Radiometric Kinase Profiler Assay service provided by Eurofins Scientific.
(§2) The activity was verified after inducing a reaction at the JAK 1, 2 and 3 active sites using radioactively labeled ATP.

[3] = Efficacy on DSS induced ulcerative colitis (disease activity index); assay type: in vivo, mice
Description: In order to establish an ulcerative colitis model, 2.5% DSS powder was mixed with drinking water and provided ad libitum. The DSS powder-containing drinking water was supplied for 5 to 6 days of disease induction period, and after that, normal drinking water was supplied.
The administered compounds of Table 21 were administered orally once daily. Hematochezia, diarrhea and body weight loss were scored according to the criteria shown in the following Table 22, and the scores were summed to calculate a disease activity index (DAI), which is shown in FIG. 4.
Efficacy of Compound (4) on ulcerative colitis was verified in the same manner as in Experimental Example 10-1, except that Compound (4) was used instead of Compound (1), and DSS was administered until day 5, and the drug was administered from day 6.

[4] = tested on: splenocytes; experiment: Inhibitory activity on cell proliferation in splenocytes (CCK-8 analysis); assay type: cell-based, C57BL/6 mouse; conditions: Mus musculus, Splenocyte, Concanavalin A 5 µg/mL, 72 hours, read-out: Inhibitory Activity on Cell Proliferation (%) (Mean±SD)
[5] = target: T2, JAK 2 (Homo sapiens, UniProt O60674); experiment: JAK Human TK kinase enzymatic radiometric assay (Eurofins), JAK 2; assay type: biochemical; set-up: unit not given here; conditions: value close to 100 indicates low JAK activity of the compound
T2 construct: purchased Eurofins Scientific (assay service)
T2 sequence (O60674 whole entry): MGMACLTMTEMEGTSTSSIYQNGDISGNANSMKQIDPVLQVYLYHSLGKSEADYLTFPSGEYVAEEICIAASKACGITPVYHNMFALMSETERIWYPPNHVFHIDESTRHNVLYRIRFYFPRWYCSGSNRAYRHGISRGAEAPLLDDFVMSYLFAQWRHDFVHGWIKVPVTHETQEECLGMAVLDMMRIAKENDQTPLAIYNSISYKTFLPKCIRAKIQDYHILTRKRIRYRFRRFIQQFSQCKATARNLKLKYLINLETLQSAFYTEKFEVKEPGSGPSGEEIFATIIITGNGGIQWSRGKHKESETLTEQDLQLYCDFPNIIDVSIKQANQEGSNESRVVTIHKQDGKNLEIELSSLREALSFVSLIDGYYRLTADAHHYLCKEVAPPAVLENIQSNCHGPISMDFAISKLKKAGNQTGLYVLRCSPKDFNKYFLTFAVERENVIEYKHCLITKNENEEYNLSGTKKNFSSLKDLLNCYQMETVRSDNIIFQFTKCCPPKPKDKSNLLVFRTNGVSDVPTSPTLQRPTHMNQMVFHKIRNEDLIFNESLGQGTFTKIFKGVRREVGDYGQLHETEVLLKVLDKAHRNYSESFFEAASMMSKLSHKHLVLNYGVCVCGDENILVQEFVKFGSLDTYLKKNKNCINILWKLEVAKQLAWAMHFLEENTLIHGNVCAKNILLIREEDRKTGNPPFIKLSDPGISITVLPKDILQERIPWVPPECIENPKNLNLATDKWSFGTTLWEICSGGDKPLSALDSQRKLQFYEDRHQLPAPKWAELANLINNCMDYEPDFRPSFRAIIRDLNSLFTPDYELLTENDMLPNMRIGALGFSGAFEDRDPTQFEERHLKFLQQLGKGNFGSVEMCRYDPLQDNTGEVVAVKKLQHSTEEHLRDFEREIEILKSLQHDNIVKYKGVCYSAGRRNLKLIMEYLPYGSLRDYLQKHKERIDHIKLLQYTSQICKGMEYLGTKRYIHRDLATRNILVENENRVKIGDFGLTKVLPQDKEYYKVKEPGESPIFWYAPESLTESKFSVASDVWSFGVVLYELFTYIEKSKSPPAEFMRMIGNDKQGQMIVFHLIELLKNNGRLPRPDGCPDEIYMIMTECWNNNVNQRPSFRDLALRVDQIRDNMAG
Text: as §1, §2

[6] = target: JAK 1 (Homo sapiens, UniProt P23458); experiment: JAK Human TK kinase enzymatic radiometric assay (Eurofins), JAK 1; conditions: value close to 100 indicates low JAK activity of the compound
Sequence of JAK 1 (P23458 whole entry): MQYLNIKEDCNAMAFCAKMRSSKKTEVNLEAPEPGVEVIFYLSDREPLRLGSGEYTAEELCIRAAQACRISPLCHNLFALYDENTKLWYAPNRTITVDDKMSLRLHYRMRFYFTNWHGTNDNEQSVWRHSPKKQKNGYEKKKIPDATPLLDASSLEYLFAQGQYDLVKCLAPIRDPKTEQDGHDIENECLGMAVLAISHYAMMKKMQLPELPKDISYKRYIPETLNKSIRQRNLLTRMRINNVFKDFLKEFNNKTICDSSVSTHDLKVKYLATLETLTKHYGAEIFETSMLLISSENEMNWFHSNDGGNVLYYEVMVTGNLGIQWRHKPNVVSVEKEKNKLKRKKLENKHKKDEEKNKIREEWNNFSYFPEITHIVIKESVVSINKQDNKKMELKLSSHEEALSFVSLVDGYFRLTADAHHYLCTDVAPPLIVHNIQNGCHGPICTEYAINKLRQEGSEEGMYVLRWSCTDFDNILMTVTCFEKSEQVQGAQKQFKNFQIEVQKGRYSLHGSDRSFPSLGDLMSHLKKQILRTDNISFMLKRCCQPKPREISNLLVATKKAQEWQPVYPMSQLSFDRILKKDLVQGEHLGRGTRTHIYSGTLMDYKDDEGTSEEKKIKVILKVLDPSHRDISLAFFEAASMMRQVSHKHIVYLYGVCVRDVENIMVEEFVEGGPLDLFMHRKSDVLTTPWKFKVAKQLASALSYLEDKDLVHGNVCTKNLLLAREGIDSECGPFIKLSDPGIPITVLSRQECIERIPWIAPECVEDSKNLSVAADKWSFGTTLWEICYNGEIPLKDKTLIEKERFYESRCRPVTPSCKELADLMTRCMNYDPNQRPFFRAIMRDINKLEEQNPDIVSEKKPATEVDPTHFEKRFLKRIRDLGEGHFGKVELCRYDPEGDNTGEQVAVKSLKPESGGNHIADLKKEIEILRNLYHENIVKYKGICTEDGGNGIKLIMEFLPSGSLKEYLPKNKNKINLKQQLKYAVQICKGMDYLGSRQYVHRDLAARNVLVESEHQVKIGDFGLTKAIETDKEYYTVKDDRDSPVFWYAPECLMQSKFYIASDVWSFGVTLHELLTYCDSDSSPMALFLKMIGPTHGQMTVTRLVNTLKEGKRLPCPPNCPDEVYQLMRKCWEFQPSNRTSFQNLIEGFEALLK

## C[C@@H]1CCN(C(=O)CC#N)C[C@@H]1N(C)c1ncnc2c1ccn2C(=O)Nc1ccccc1N [Example 1, N-(2-aminophenyl)-4-(((3R,4R)-1-(2-cyanoacetyl)-4-methylpiperidin-3-yl) (methyl)amino)-7H-pyrrolo[2,3-d]pyrimidine-7-carboxamide]
[1]
  activity at 10 µM: 98.1 ± 0.09%
[2]; 0.1 nM
  JAK 3 Activity: 94
[2]; 1 nM
  JAK 3 Activity: 95
[2]; 10 nM
  JAK 3 Activity: 55
[2]; 100 nM
  JAK 3 Activity: 16
[3]; 25 mg/kg oral once daily from day 3, day 7 of the test, p<0.01, FIG. 4
  efficacy on disease activity index (DAI): statistically significant efficacy was observed
[3]; 25 mg/kg oral once daily, FIGS. 4 and 5
  efficacy in alleviating ulcerative colitis compared to tofacitinib: comparable to that of tofacitinib on average; also recorded: comparable or more superior efficacy
[4]
  inhibition at 10 µM: 55 ± 8.48%
[5]; 0.1 nM
  JAK 2 Activity: 100
[5]; 1 nM
  JAK 2 Activity: 92
[5]; 10 nM
  JAK 2 Activity: 69
[5]; 100 nM
  JAK 2 Activity: 16
[6]; 0.1 nM
  JAK 1 Activity: 101
[6]; 1 nM
  JAK 1 Activity: 102
[6]; 10 nM
  JAK 1 Activity: 45
[6]; 100 nM
  JAK 1 Activity: 7
